This is an account of results in patent publication US5120720A, “Preparation of lipophile:hydroxypropylcyclodextrin complexes by a method using co-solubilizers” (priority 1990, dated 1992).

For data set [1] the following is noted: read-out: Stability constant of the complex with β-cyclodextrin, cited from earlier work.
The conditions of data set [2]: read-out: Stability constant of the complex with α-cyclodextrin, cited from earlier work.
The conditions of data set [3]: β-cyclodextrin, aqueous sodium hydroxide then phosphoric acid (U.S. Pat. No. 4,883,785, Example 3); cited from earlier work.
The format of data set [4] is physicochemical. An excerpt: The methods of preparation herein disclosed were also used successfully with the ethanol-soluble peptides such as gramicidin S, complexed with hydroxypropyl-β-cyclodextrin (Example 4). It was also used to prepare the gramicidin S:hydroxypropyl-α-cyclodextrin preparation (Example 5) and gramicidin S:hydroxypropyl-γ-cyclodextrin preparation (Example 6).
The processes disclosed herein differ substantially from those described by Szejtli (p. 268) for the preparation of crystalline β-cyclodextrin:vitamin D3 complexes, which were prepared using organic solvents. In this regard, the procedure described by Szejtli consists of the co-dissolution of components, i.e., of crystalline β-cyclodextrin and vitamin D3, at 50° C. in 60-65% aqueous ethanol, followed by cooling of the clear solution during which crystalline complex of the vitamin precipitates. Moreover, attempts to use Szejtli's procedure for the above complexes were not successful, since concentration of ethanol in the range 60-65% solubilized steroids only incompletely and no precipitation occurred.

Data set [5] can be described thus: Solubility of freeze-dried complexes or residues in water, and stability of the solutions. Particulars: attempted complex preparation. It counts as physicochemical. Here is the method:
For a number of applications, complexes in powdery form as prepared by freeze-drying (lyophilizing), are preferable to the glassy residues such as are obtained by the above discussed procedure. Therefore, to obtain complexes in a powdery form, the glassy preparations were dissolved in water (final concentration of hydroxypropyl-β-cyclodextrin was about 10% W/W), sterilized by ultrafiltration and freeze-dried. All of the following exemplary preparations of steroids so prepared, dissolved fully. Moreover, the complexes so obtained were again amorphous and could be tabletted by direct compression.
The solubility of freeze-dried complexes such as those provided below was invariably high. For example, all the complexes of steroids in Examples 1-3 dissolved smoothly in water up to 40% W/W concentration, and these solutions were stable for at least 24 hours.
[…] Full dissolution occurred in five minutes; the solution was then filtered through a membrane filter (pore size 0.22 μm). The filtrate was evaporated at room temperature in vacuo to dryness leaving a glassy residue. […] The yield was 85%.

Where [6] appears, read: source (a) M. Suzuki et al. 1988.
[7] abbreviates: source (b) Y. Matsui and K. Mochida 1979.
Where [8] appears, read: source (d) W. Hirsch et al. 1987.

Like-named read-outs stand apart in the source and are kept apart here.

Regarding `CC(C)(C)CO` [2,2-dimethyl-1-propanol], the Kd was 1.52 mM in data set [1] (setting [6]), 1.72 mM in data set [1] (setting [7]) and 33.3 mM in data set [2] (setting [6]).

For the compound `N` [ammonia], the Kd in data set [1] (setting [8]) is 0.0667 mM; in data set [2] (setting [8]) it was 0.0164 mM.

With `C[C@@H]1[C@H](O)[C@@H](C)/C=C/C=C/C=C/C=C/C=C/C=C/C=C/[C@H](O[C@@H]2O[C@H](C)[C@@H](O)[C@H](N)[C@@H]2O)C[C@@H]2O[C@](O)(C[C@@H](O)C[C@@H](O)[C@H](O)CC[C@@H](O)C[C@@H](O)CC(=O)O[C@H]1C)C[C@H](O)[C@H]2C(=O)O` [amphotericin B], the Starting drug solubilized result in data set [3] was “about 1%”.

As for `CCCCO` [n-butanol], the Kd in data set [2] (setting [6]) was 9.09 mM; in data set [2] (setting [7]), 11.2 mM.

For `CCCCCO` [n-pentanol], the Kd was 11.5 mM in data set [1] (setting [6]), 15.9 mM in data set [1] (setting [7]), 3.33 mM in data set [2] (setting [6]) and 3.1 mM in data set [2] (setting [7]).

As for `CCCO` [n-propanol], the figures for the Kd in data set [2] (setting [6]) and in data set [2] (setting [7]) were 50 mM and 43.5 mM, respectively.

With `CC(C)(C)O` [t-butanol], the results for the Kd in data set [1] (setting [6]) and in data set [1] (setting [7]) were 23.8 mM and 20.8 mM, respectively.

In the case of `OC[C@H]1O[C@@H]2O[C@H]3[C@H](O)[C@@H](O)[C@@H](O[C@H]4[C@H](O)[C@@H](O)[C@@H](O[C@H]5[C@H](O)[C@@H](O)[C@@H](O[C@H]6[C@H](O)[C@@H](O)[C@@H](O[C@H]7[C@H](O)[C@@H](O)[C@@H](O[C@H]8[C@H](O)[C@@H](O)[C@@H](O[C@H]1[C@H](O)[C@H]2O)O[C@@H]8CO)O[C@@H]7CO)O[C@@H]6CO)O[C@@H]5CO)O[C@@H]4CO)O[C@@H]3CO` [β-cyclodextrin], the “Solubility in 75% ethanol” value in data set [4] was “low solubility”.

On to gramicidin D, for which, in data set [5], the “Solubility in water of solid residue after evaporation of ethanol 95% solution” value is “insoluble in water”. Further, the “Dissolution in ethanol 75%” value in data set [4] (ethanol 75%) is reported as “did not dissolve”. Besides, the “Dissolution in ethanol 95%” value in data set [4] (ethanol 95%) is listed as “dissolved”.
